From BindingDB's records for doi:10.1016/j.bmcl.2007.05.099 (Southern Research Institute, 2007)

Assay: Inhibition of Mycobacterium smegmatis arabinosyl transferase assessed as [14C]arabinofuranose incorporation

**Q.** Which IC50 does the source give for `O[C@H]1[C@H](O)[C@@H](CN(CC2CCCCC2)CC2CCCCC2)O[C@@H]1CC[C@H]1O[C@H](CN(CC2CCCCC2)CC2CCCCC2)[C@@H](O)[C@@H]1O` [(2R,3S,4S,5R)-2-((bis(cyclohexylmethyl)amino)methyl)-5-(2-((2R,3S,4S,5R)-5-((bis(cyclohexylmethyl)amino)methyl)-3,4-dihydroxy-tetrahydrofuran-2-yl)ethyl)-tetrahydrofuran-3,4-diol] here?
**A.** The IC50 was 3.44 mM.

**Q.** For `O[C@H]1[C@H](O)[C@@H](CN(CC2CCCCC2)CC2CCCCC2)O[C@@H]1/C=C/[C@H]1O[C@H](CN(CC2CCCCC2)CC2CCCCC2)[C@@H](O)[C@@H]1O` [(2R,3S,4S,5R)-2-((bis(cyclohexylmethyl)amino)methyl)-5-(2-((2R,3S,4S,5R)-5-((bis(cyclohexylmethyl)amino)methyl)-3,4-dihydroxy-tetrahydrofuran-2-yl)vinyl)-tetrahydrofuran-3,4-diol], which IC50 is on record?
**A.** The IC50 was 4.15 mM.

**Q.** Which IC50 does the source give for `O[C@@H]1[C@@H](OC[C@H]2O[C@H](CN(CC3CCCCC3)CC3CCCCC3)[C@@H](O)[C@@H]2O)O[C@H](CN(CC2CCCCC2)CC2CCCCC2)[C@H]1O` [(2R,3S,4S,5R)-2-((bis(cyclohexylmethyl)amino)methyl)-5-(((2S,3S,4S,5R)-5-((bis(cyclohexylmethyl)amino)methyl)-3,4-dihydroxy-tetrahydrofuran-2-yloxy)methyl)-tetrahydrofuran-3,4-diol] here?
**A.** The IC50 was 2.8 mM.
